Read-outs that look alike come from different tables or passages of the source.
Columns and labels:
[1] = tested on: gastric acid secretion; test: gastric acid secretion-inhibiting effect, Shay's method (pylorus-ligated rats); type: in vivo, rat (female H-Wistar); conditions: Rattus norvegicus
Protocol: According to this method female H-Wistar rats weighing 120 to 150 g were starved in latticed cages for 24 hours. The animals received water ad libitum. Then their pylorus was ligated under a slight ether anaesthesia. The test compounds were administered during the surgical intervention. After 4 hours the animals were killed by ether narcosis. After excision of the stomach the volume and pH value of the gastric content were measured. In several cases the hydrochloric acid content was determined by titration.

[2] = tested on: gastric ulcers induced in rats by indomethacine; test: inhibition of gastric ulcers induced by indomethacine in rats; type: in vivo, rat; conditions: 50 mg/kg oral dose, ulcers induced by 40 mg/kg s.c. indomethacine
Protocol: An 50 mg/kg oral dose of 1-benzyl-2-(cyanoimino)pyridine inhibits the development of gastric ulcers induced in rats by 40 mg/kg subcutaneous (s.c.) dose of indomethacine (chemically [1-(4-chlorobenzoyl)-2-methyl-5-methoxyindol-3-yl]acetic acid) by 100%.

[3] = tested on: rats; conditions: rat, in vivo, po, 120 mg/kg
[4] = Shay's method, female H-Wistar rats 120 to 150 g, starved 24 hours, pylorus ligated, 4 hours, given during the surgical intervention, read-out: ED50

SMILES	ED50 [1, 4] [mg/kg]	also measured
N#CN=c1ccccn1Cc1ccccc1F [2-(cyanoimino)-1-(2-fluorobenzyl)pyridine]	4.3	–
O=[N+]([O-])N=c1ccccn1Cc1ccccc1 [1-benzyl-2-(nitroiminopyridine, 1-benzyl-2-(nitroimino)pyridine]	13.6	–
N#CN=c1ccccn1Cc1cccc(Cl)c1 [1-(3-chlorobenzyl)-2-(cyanoimino)pyridine]	9.88	–
N#CN=c1ccccn1Cc1ccc(F)cc1 [2-(cyanoimino)-1-(4-fluorobenzyl)pyridine]	8.36	–
CN=C(NC#N)NCCSCc1nc[nH]c1C [cimetidine, 1-cyano-2-methyl-3-[2-[[(5-methylimidazol-4-yl)methyl]thio]ethyl]-guanidine, reference compound]	–	ED50 ([1]; po, 4 h, read-out: oral ED50): 50 mg/kg
N#CN=c1ccccn1Cc1ccccc1Cl [1-(2-chlorobenzyl)-2-(cyanoimino)pyridine]	1.8	–
N#CN=c1ccccn1Cc1cccc(C(F)(F)F)c1 [2-(cyanoimino)-1-(3-trifluoromethylbenzyl)pyridine]	12.2	–
N#CN=c1ccccn1Cc1ccccc1 [1-benzyl-2-(cyanoimino)pyridine]	3.26	inhibition of the development of gastric ulcers [2]: 100%; toxic symptom [3]: No toxic symptom
Cc1ccccc1Cn1ccccc1=NC#N [2-(cyanoimino)-1-(2-methylbenzyl)pyridine]	11.7	–

— patent US5155123A, “Pyridine derivatives and pharmaceutical compositions containing them” (Richter Gedeon Vegyeszeti Gyar R.T., priority 1989, dated 1992)
